Test results published in ChEMBL document CHEMBL1201861, “Genomics of Drug Sensitity in Cancer screening data, Wellcome Trust Sanger Institute”.
pIC50: −log10 of the molar value.

What was measured:
Experiment in all cases: cells
DOHH-2 = format: functional, cell-based; conditions: Homo sapiens;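 further: growth inhibition of human DOHH-2 cells, read out with a cell viability assay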
Description: SANGER: Inhibition of human DOHH-2 cell growth in a cell viability assay.

BXPC-3 = format: functional, cell-based, Homo sapiens; conditions: Homo sapiens, BXPC-3;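 further: growth inhibition of human BxPC-3 cells, read out by a cell viability assay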
Description: SANGER: Inhibition of human BxPC-3 cell growth in a cell viability assay.

NCI-H727 = format: functional, cell-based, Homo sapiens; conditions: Homo sapiens, NCI-H727;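 further: growth inhibition of human NCI-H727 cells, read out with a cell viability assay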
Description: SANGER: Inhibition of human NCI-H727 cell growth in a cell viability assay.

NCI-N87 = format: functional, cell-based, Homo sapiens; conditions: Homo sapiens, NCI-N87;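 further: growth inhibition of human NCI-N87 cells, read out with a cell viability assay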
Description: SANGER: Inhibition of human NCI-N87 cell growth in a cell viability assay.

DOK = format: functional, cell-based, Homo sapiens; conditions: Homo sapiens, DOK;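 further: cell viability assay read-out, values reflect inhibition of cell growth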
Description: SANGER: Inhibition of human DOK cell growth in a cell viability assay.

A2058 = format: functional, cell-based; conditions: Homo sapiens;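 further: reduction of A2058 cell growth, read out with a viability assay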
Description: SANGER: Inhibition of human A2058 cell growth in a cell viability assay.

LS-1034 = format: functional, cell-based, Homo sapiens; conditions: Homo sapiens, LS-1034
Description: SANGER: Inhibition of human LS-1034 cell growth in a cell viability assay.

SBC-5 = format: functional, cell-based, Homo sapiens; conditions: Homo sapiens, SBC-5;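 further: cell viability assay read-out, IC50 is the concentration that inhibits growth of the cells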
Description: SANGER: Inhibition of human SBC-5 cell growth in a cell viability assay.

EOL1 = format: functional, cell-based; conditions: Homo sapiens;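 further: growth inhibition of EoL-1 cells, read out by a cell viability assay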
Description: SANGER: Inhibition of human EoL-1-cell cell growth in a cell viability assay.

AM-38 = format: functional, cell-based, Homo sapiens; conditions: Homo sapiens, AM-38;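 further: growth inhibition of AM-38 cells of human origin, read out by a cell viability assay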
Description: SANGER: Inhibition of human AM-38 cell growth in a cell viability assay.

TE-11 = format: functional, cell-based, Homo sapiens; conditions: Homo sapiens, TE-11;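 further: growth inhibition of human TE-11 cells, read out by a cell viability assay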
Description: SANGER: Inhibition of human TE-11 cell growth in a cell viability assay.

D-263MG = format: functional, cell-based, Homo sapiens; conditions: Homo sapiens, D-263MG
Description: SANGER: Inhibition of human D-263MG cell growth in a cell viability assay.

HT = format: functional, cell-based; conditions: Homo sapiens
Description: SANGER: Inhibition of human HT cell growth in a cell viability assay.

HCC1569 = format: functional, cell-based, Homo sapiens; conditions: Homo sapiens, HCC1569;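 further: growth inhibition of human HCC1569 cells, read out with a cell viability assay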
Description: SANGER: Inhibition of human HCC1569 cell growth in a cell viability assay.

EW-16 = format: functional, cell-based, Homo sapiens; conditions: Homo sapiens, EW-16;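 further: growth inhibition of human EW-16 cells, read out as cell viability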
Description: SANGER: Inhibition of human EW-16 cell growth in a cell viability assay.

KINGS-1 = format: functional, cell-based, Homo sapiens; conditions: Homo sapiens, KINGS-1;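 further: cell viability assay measuring suppression of KINGS-1 cell growth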
Description: SANGER: Inhibition of human KINGS-1 cell growth in a cell viability assay.

OMC-1 = format: functional, cell-based, Homo sapiens; conditions: Homo sapiens, OMC-1;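 further: growth inhibition of the OMC-1 cell line, measured by a cell viability assay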
Description: SANGER: Inhibition of human OMC-1 cell growth in a cell viability assay.

RS4-11 = format: functional, cell-based; conditions: Homo sapiens;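 further: growth inhibition of RS4-11 cells, read out by a cell viability assay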
Description: SANGER: Inhibition of human RS4-11 cell growth in a cell viability assay.

HOP-92 = format: functional, cell-based, Homo sapiens; conditions: Homo sapiens, HOP-92;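 further: cell viability readout, with IC50 reflecting inhibition of HOP-92 cell growth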
Description: SANGER: Inhibition of human HOP-92 cell growth in a cell viability assay.

NH-12 = format: functional, cell-based, Homo sapiens; conditions: Homo sapiens, NH-12;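 further: growth inhibition of NH-12 cells, read out with a cell viability assay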
Description: SANGER: Inhibition of human NH-12 cell growth in a cell viability assay.

DB = format: functional, cell-based; conditions: Homo sapiens
Description: SANGER: Inhibition of human DB cell growth in a cell viability assay.

NCI-H2052 = format: functional, cell-based, Homo sapiens; conditions: Homo sapiens, NCI-H2052;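 further: growth inhibition of NCI-H2052 cells, read out with a cell viability assay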
Description: SANGER: Inhibition of human NCI-H2052 cell growth in a cell viability assay.

KY821 = format: functional, cell-based; conditions: Homo sapiens;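 further: growth inhibition of human KY821 cells, read out by a cell viability assay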
KM12 = format: functional, cell-based, Homo sapiens; conditions: Homo sapiens, KM12;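 further: KM12 cell growth inhibition, read out with a cell viability assay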
Description: SANGER: Inhibition of human KM12 cell growth in a cell viability assay.

U2OS = format: functional, cell-based, Homo sapiens, U-2-OS; conditions: Homo sapiens, U2OS;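 further: growth inhibition of human U-2-OS cells, determined with a cell viability assay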
Description: SANGER: Inhibition of human U-2-OS cell growth in a cell viability assay.

SK-MES-1 = format: functional, cell-based, Homo sapiens; conditions: Homo sapiens, SK-MES-1;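 further: growth inhibition of human SK-MES-1 cells, read out with a cell viability assay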
Description: SANGER: Inhibition of human SK-MES-1 cell growth in a cell viability assay.

MIA PaCa-2 = format: functional, cell-based, Homo sapiens; conditions: Homo sapiens, MIA PaCa-2;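 further: growth inhibition of MIA PaCa-2 cells, read out with a cell viability assay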
Description: SANGER: Inhibition of human MIA-PaCa-2 cell growth in a cell viability assay.

TE-6 = format: functional, cell-based, Homo sapiens; conditions: Homo sapiens, TE-6;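 further: growth inhibition of TE-6 cells, read out with a cell viability assay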
Description: SANGER: Inhibition of human TE-6 cell growth in a cell viability assay.

SN12C = format: functional, cell-based, Homo sapiens; conditions: Homo sapiens, SN12C;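 further: growth inhibition of human SN12C cells, measured by a cell viability assay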
Description: SANGER: Inhibition of human SN12C cell growth in a cell viability assay.

647-V = format: functional, cell-based, Homo sapiens; conditions: Homo sapiens, 647-V;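 further: growth inhibition of 647-V cells, read out with a cell viability assay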
Description: SANGER: Inhibition of human 647-V cell growth in a cell viability assay.

ES6 = format: functional, cell-based, Homo sapiens; conditions: Homo sapiens, ES6;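 further: growth inhibition of human ES6 cells, read out with a cell viability assay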
Description: SANGER: Inhibition of human ES6 cell growth in a cell viability assay.

SW 954 = format: functional, cell-based, Homo sapiens; conditions: Homo sapiens, SW 954;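 further: growth inhibition of SW954 human cancer cells, read out as cell viability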
Description: SANGER: Inhibition of human SW954 cell growth in a cell viability assay.

TGBC1TKB = format: functional, cell-based, Homo sapiens; conditions: Homo sapiens, TGBC1TKB;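 further: growth inhibition of TGBC1TKB cells, read out by a cell viability assay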
Description: SANGER: Inhibition of human TGBC1TKB cell growth in a cell viability assay.

EM-2 = format: functional, cell-based; conditions: Homo sapiens;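 further: growth inhibition of EM-2 cells, read out with a cell viability assay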
Description: SANGER: Inhibition of human EM-2 cell growth in a cell viability assay.

SW 962 = format: functional, cell-based, Homo sapiens; conditions: Homo sapiens, SW 962;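 further: growth inhibition of human SW962 cells, read out by a cell viability assay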
Description: SANGER: Inhibition of human SW962 cell growth in a cell viability assay.

A704 = format: functional, cell-based, Homo sapiens; conditions: Homo sapiens, A704;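 further: growth inhibition of human A704 cells, read out with a cell viability assay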
Description: SANGER: Inhibition of human A704 cell growth in a cell viability assay.

no-10 = format: functional, cell-based, Homo sapiens; conditions: Homo sapiens;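 further: growth inhibition of no-10 cells, read out with a cell viability assay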
Description: SANGER: Inhibition of human no-10 cell growth in a cell viability assay.

HCC 2998 = format: functional, cell-based, Homo sapiens; conditions: Homo sapiens, HCC 2998;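 further: growth inhibition of human HCC2998 cells, measured with a cell viability read-out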
Description: SANGER: Inhibition of human HCC2998 cell growth in a cell viability assay.

SW1710 = format: functional, cell-based, Homo sapiens; conditions: Homo sapiens, SW1710;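 further: growth inhibition of SW1710 cells, determined with a cell viability assay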
Description: SANGER: Inhibition of human SW1710 cell growth in a cell viability assay.

NB6 = format: functional, cell-based, Homo sapiens; conditions: Homo sapiens, NB6;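 further: growth inhibition of NB6 cells, read out by a cell viability assay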
Description: SANGER: Inhibition of human NB6 cell growth in a cell viability assay.

NCI-H2030 = format: functional, cell-based, Homo sapiens; conditions: Homo sapiens, NCI-H2030;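 further: growth inhibition of human NCI-H2030 cells, read out by a cell viability assay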
Description: SANGER: Inhibition of human NCI-H2030 cell growth in a cell viability assay.

SW837 = format: functional, cell-based, Homo sapiens; conditions: Homo sapiens, SW837;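 further: growth inhibition of SW837 cells, determined with a cell viability assay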
Description: SANGER: Inhibition of human SW837 cell growth in a cell viability assay.

MKN-7 = format: functional, cell-based, Homo sapiens; conditions: Homo sapiens, MKN-7;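 further: growth inhibition of MKN-7 cells, read out with a cell viability assay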
Description: SANGER: Inhibition of human MKN7 cell growth in a cell viability assay.

SW780 = format: functional, cell-based, Homo sapiens; conditions: Homo sapiens, SW780;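 further: growth inhibition of the cells, read out with a cell viability assay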
GAMG = format: functional, cell-based, Homo sapiens; conditions: Homo sapiens, GAMG;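 further: cell growth inhibition measured by a viability assay in the GAMG human cell line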
Description: SANGER: Inhibition of human GAMG cell growth in a cell viability assay.

COLO-320-HSR = format: functional, cell-based; conditions: Homo sapiens;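 further: growth inhibition of COLO-320-HSR cells, determined with a cell viability assay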
Description: SANGER: Inhibition of human COLO-320-HSR cell growth in a cell viability assay.

COLO-679 = format: functional, cell-based, Homo sapiens; conditions: Homo sapiens, COLO-679
Description: SANGER: Inhibition of human COLO-679 cell growth in a cell viability assay.

UMC-11 = format: functional, cell-based, Homo sapiens; conditions: Homo sapiens, UMC-11;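 further: growth inhibition of UMC-11 cells, read out with a cell viability assay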
Description: SANGER: Inhibition of human UMC-11 cell growth in a cell viability assay.

MHH-NB-11 = format: functional, cell-based, Homo sapiens; conditions: Homo sapiens, MHH-NB-11;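 further: growth inhibition of human MHH-NB-11 cells, read out by a cell viability assay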
Description: SANGER: Inhibition of human MHH-NB-11 cell growth in a cell viability assay.

COLO-824 = format: functional, cell-based, Homo sapiens; conditions: Homo sapiens, COLO-824
Description: SANGER: Inhibition of human COLO-824 cell growth in a cell viability assay.

A 172 = format: functional, cell-based, Homo sapiens; conditions: Homo sapiens, A 172;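 further: growth inhibition of A172 cells, measured with a cell viability readout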
GR-ST = format: functional, cell-based; conditions: Homo sapiens
Description: SANGER: Inhibition of human GR-ST cell growth in a cell viability assay.

O=C1N=C(NCc2cccs2)S/C1=C\c1ccc2ncccc2c1
pIC50 (DOHH-2): < 5.30
pIC50 (BXPC-3): < 5.30
pIC50 (NCI-H727): < 5.30
pIC50 (NCI-N87): < 5.30
pIC50 (DOK): < 5.30
pIC50 (A2058): < 5.30
pIC50 (LS-1034): < 5.30
pIC50 (SBC-5): < 5.30
pIC50 (EOL1): < 5.30
pIC50 (AM-38): < 5.30
pIC50 (TE-11): < 5.30
pIC50 (D-263MG): < 5.30
pIC50 (HT): < 5.30
pIC50 (HCC1569): < 5.30
pIC50 (EW-16): < 5.30
pIC50 (KINGS-1): < 5.30
pIC50 (OMC-1): < 5.30
pIC50 (RS4-11): < 5.30
pIC50 (HOP-92): < 5.30
pIC50 (NH-12): < 5.30
pIC50 (DB): < 5.30
pIC50 (NCI-H2052): < 5.30
pIC50 (KY821): < 5.30
pIC50 (KM12): < 5.30
pIC50 (U2OS): < 5.30
pIC50 (SK-MES-1): < 5.30
pIC50 (MIA PaCa-2): < 5.30
pIC50 (TE-6): < 5.30
pIC50 (SN12C): < 5.30
pIC50 (647-V): < 5.30
pIC50 (ES6): < 5.30
pIC50 (SW 954): < 5.30
pIC50 (TGBC1TKB): < 5.30
pIC50 (EM-2): < 5.30
pIC50 (SW 962): < 5.30
pIC50 (A704): < 5.30
pIC50 (no-10): < 5.30
pIC50 (HCC 2998): < 5.30
pIC50 (SW1710): 5.79
pIC50 (NB6): < 5.30
pIC50 (NCI-H2030): < 5.30
pIC50 (SW837): < 5.30
pIC50 (MKN-7): < 5.30
pIC50 (SW780): < 5.30
pIC50 (GAMG): < 5.30
pIC50 (COLO-320-HSR): < 5.30
pIC50 (COLO-679): < 5.30
pIC50 (UMC-11): < 5.30
pIC50 (MHH-NB-11): < 5.30
pIC50 (COLO-824): < 5.30
pIC50 (A 172): < 5.30
pIC50 (GR-ST): < 5.30

CN(C)C/C=C/C(=O)Nc1cc2c(Nc3ccc(F)c(Cl)c3)ncnc2cc1O[C@H]1CCOC1 [AFATINIB]
pIC50 (DOHH-2): < 6.30
pIC50 (BXPC-3): < 6.30
pIC50 (NCI-H727): < 6.30
pIC50 (NCI-N87): 7.56
pIC50 (DOK): 7.50
pIC50 (A2058): < 6.30
pIC50 (LS-1034): < 6.30
pIC50 (SBC-5): < 6.30
pIC50 (EOL1): 6.57
pIC50 (AM-38): < 6.30
pIC50 (TE-11): < 6.30
pIC50 (D-263MG): < 6.30
pIC50 (HT): < 6.30
pIC50 (HCC1569): < 6.30
pIC50 (EW-16): < 6.30
pIC50 (KINGS-1): < 6.30
pIC50 (OMC-1): < 6.30
pIC50 (RS4-11): < 6.30
pIC50 (HOP-92): < 6.30
pIC50 (NH-12): < 6.30
pIC50 (DB): < 6.30
pIC50 (NCI-H2052): < 6.30
pIC50 (KY821): 7.69
pIC50 (KM12): < 6.30
pIC50 (U2OS): < 6.30
pIC50 (SK-MES-1): < 6.30
pIC50 (MIA PaCa-2): < 6.30
pIC50 (TE-6): 6.40
pIC50 (SN12C): < 6.30
pIC50 (647-V): < 6.30
pIC50 (ES6): < 6.30
pIC50 (SW 954): < 6.30
pIC50 (TGBC1TKB): < 6.30
pIC50 (EM-2): < 6.30
pIC50 (SW 962): < 6.30
pIC50 (A704): < 6.30
pIC50 (no-10): < 6.30
pIC50 (HCC 2998): < 6.30
pIC50 (SW1710): < 6.30
pIC50 (NB6): < 6.30
pIC50 (NCI-H2030): < 6.30
pIC50 (SW837): < 6.30
pIC50 (MKN-7): < 6.30
pIC50 (SW780): < 6.30
pIC50 (GAMG): < 6.30
pIC50 (COLO-320-HSR): < 6.30
pIC50 (COLO-679): < 6.30
pIC50 (UMC-11): < 6.30
pIC50 (MHH-NB-11): < 6.30
pIC50 (COLO-824): < 6.30
pIC50 (A 172): < 6.30
pIC50 (GR-ST): < 6.30
